Assay results taken from patent US20260200890A1, “ADAR1 INHIBITORS AND METHODS OF USING THE SAME” (AVAMMUNE THERAPEUTICS INC., priority 2022, published 2026).

Assays:
Zα domain of ADAR1 p150 = target: T1, Zα domain of ADAR1 p150 (Homo sapiens, UniProt P55265); experiment: SPR binding assay; settings: 6× his tag Zα domain immobilized on CM5 chip, analyte 0-25 μM
T1 construct: 10 μg/ml of Zα domain of ADAR1 was immobilized on CM5 chip using anti-HIS antibody; made in house
T1 sequence (P55265 133-199 limits assumed): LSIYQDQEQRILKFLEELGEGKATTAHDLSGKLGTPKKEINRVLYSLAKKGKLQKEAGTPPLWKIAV
Description: 6× his tag Za domain of ADAR1 p150 was purified using bacterial purification system. Protein was isolated from supernatant of cell lysate using Ni-NTA resin. For binding assay using SPR, 10 μg/ml of Zα domain of ADAR1 was immobilized on CM5 chip using anti-HIS antibody. Binding was quantified using the following condition below: • Analyte: 25, 12.5, 6.25, 3.125, 1.56, 0.78, 0 μM • Contact time—60 seconds, • Dissociation time—320 seconds • Flow rate—30 μL/minute Running buffer-PBSP+5% DMSO • After curve fitting, Kd values for synthesized compounds was quantified using the instrument software.

ADAR1 = target: T2, ADAR1 (Homo sapiens, UniProt P55265); experiment: ADAR1 Inhibition Assay (IFN fold-induction, Quanti-Luc luminescence, p110 KO A549 dual cells); assay type: cell-based; settings: IFN fold-induction vs DMSO, 24 and 48 h
T2 construct: endogenous in cells; host or cells: p110 KO A549 dual cells
T2 sequence (P55265 1-1226): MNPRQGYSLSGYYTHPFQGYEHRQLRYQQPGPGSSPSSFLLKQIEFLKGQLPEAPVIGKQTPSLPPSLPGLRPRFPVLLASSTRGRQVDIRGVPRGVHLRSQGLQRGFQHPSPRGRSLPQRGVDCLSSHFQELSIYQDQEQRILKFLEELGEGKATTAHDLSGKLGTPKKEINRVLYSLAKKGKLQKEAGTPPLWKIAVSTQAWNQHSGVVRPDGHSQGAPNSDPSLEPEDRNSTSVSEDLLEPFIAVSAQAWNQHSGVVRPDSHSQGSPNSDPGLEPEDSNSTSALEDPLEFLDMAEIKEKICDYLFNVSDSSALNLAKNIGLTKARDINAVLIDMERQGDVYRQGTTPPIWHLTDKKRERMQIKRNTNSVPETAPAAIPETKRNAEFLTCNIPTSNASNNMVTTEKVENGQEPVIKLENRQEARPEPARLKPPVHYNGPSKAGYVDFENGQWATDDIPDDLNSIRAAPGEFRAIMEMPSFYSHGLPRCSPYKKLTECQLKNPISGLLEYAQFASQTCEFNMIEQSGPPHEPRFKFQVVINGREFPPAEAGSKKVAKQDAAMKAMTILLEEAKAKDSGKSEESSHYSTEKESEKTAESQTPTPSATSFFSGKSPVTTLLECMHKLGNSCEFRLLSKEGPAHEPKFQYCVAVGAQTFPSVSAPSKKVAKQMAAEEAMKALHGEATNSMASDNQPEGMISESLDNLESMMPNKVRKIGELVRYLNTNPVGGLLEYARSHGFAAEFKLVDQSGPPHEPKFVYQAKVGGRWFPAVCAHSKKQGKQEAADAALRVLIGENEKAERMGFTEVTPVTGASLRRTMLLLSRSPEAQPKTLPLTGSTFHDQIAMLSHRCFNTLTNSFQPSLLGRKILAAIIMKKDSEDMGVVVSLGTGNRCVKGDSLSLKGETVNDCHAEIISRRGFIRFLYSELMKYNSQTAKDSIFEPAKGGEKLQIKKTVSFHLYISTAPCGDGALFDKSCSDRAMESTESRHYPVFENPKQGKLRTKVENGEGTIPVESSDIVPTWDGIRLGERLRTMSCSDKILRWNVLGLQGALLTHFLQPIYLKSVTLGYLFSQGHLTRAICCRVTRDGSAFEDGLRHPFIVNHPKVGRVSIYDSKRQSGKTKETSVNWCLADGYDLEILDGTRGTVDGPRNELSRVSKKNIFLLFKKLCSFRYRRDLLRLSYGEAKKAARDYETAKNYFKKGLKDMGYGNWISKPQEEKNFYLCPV
Summary of the method: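 p110 KO A549 dual cells (20,000/well) in supplemented DMEM, treated next day with compound at 1% final DMSO for 24 and 48 h at 37 °C, 5% CO2. Supernatant luminescence read with Quanti-Luc; IFN fold-induction = sample RLU/mean DMSO RLU, used for EC50.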

| SMILES | Kd (Zα domain of ADAR1 p150) | EC50 (ADAR1) |
| --- | --- | --- |
| CCOC(=O)c1cc(-c2ccccc2)sc1NC(=O)COC(=O)c1cccc(NC(C)=O)c1 [Compound 107] | ≤ 1000 nM | > 100 µM |
| CCOC(=O)c1cc(-c2ccccc2)sc1NC(=O)COC(=O)c1ccc(F)c(NS(C)(=O)=O)c1 [Compound 137] | > 25000 nM | > 100 µM |
| CCOC(=O)c1cc(-c2ccccc2)sc1NC(=O)CNC(=O)c1cccc(NS(C)(=O)=O)c1 [Compound 13] | ≤ 1000 nM | > 100 µM |
| CCOC(=O)c1cc(-c2ccccc2)sc1NC(=O)Cn1cc(-c2cccc(P(=O)(OCC)OCC)c2)nn1 [Compound 385] | ≤ 1000 nM | > 100 µM |
| CCOC(=O)c1cc(-c2ccccc2)sc1NC(=O)CNC(=O)Cc1ccc(S(C)(=O)=O)cc1 [Compound 327] | ≤ 1000 nM | > 100 µM |
| CCOC(=O)c1sc(-c2ccccc2)cc1NC(=O)COC(=O)c1cccc(P(=O)(O)O)c1 [Compound 400] | 1000 to 10000 nM | > 100 µM |
| CCOC(=O)c1cc(-c2ccccc2)[nH]c1NC(=O)C1CCN(C(=O)c2cccc(NS(C)(=O)=O)c2)C1 (centres unmarked) [Compound 412] | > 25000 nM | > 100 µM |
| CCOC(=O)c1cc(-c2ccccc2)sc1NC(=O)COC(=O)c1cccc(C#N)c1 [Compound 71] | ≤ 1000 nM | > 100 µM |
| CCOC(=O)c1cc(-c2ccccc2)sc1NC(=O)[C@@H]1CCN(C(=O)c2cccc(P(=O)(OCC)OCC)c2)C1 [Compound 415] | ≤ 1000 nM | > 100 µM |
| CCOC(=O)c1cc(-c2ccccc2)sc1NC(=O)COC(=O)c1cccc(OS(=O)(=O)F)c1 [Compound 302] | ≤ 1000 nM |  |
| CCOC(=O)c1cc(-c2ccccc2)sc1NC(=O)C1CCN(C(=O)c2cccc(P(=O)(OCC)OCC)c2)C1 (centres unmarked) [Compound 361] | > 25000 nM | 50 to 100 µM |
| CCOC(=O)c1cc(-c2ccccc2)sc1NC(=O)CNC(=O)c1cccc(P(=O)(OCC)OCC)c1 [Compound 344] | > 25000 nM | > 100 µM |
| CCOC(=O)c1cc(-c2ccccc2)ccc1NC(=O)COC(=O)c1cccc(NS(C)(=O)=O)c1 [Compound 171] | > 25000 nM | > 100 µM |
| CCOC(=O)c1sc(-c2ccccc2)cc1NC(=O)CNC(=O)Cc1cccc(NS(C)(=O)=O)c1 [Compound 357] | 1000 to 10000 nM |  |
| CCNC(=O)c1cc(-c2ccccc2)sc1NC(=O)CNC(=O)c1ccc(P(=O)(OCC)OCC)cc1 [Compound 437] | ≤ 1000 nM |  |
| CCOC(=O)c1cc(-c2ccccc2)sc1NC(=O)CNC(=O)c1cccc(C(=O)O)c1 [Compound 439] | ≤ 1000 nM |  |
| CCOC(=O)c1cc(-c2ccccc2)sc1NC(=O)CN(C)C(=O)c1cccc(P(=O)(O)O)c1 [Compound 435] | ≤ 1000 nM |  |
| CCOC(=O)c1cc(-c2ccccc2)sc1NC(=O)CNC(=O)CCc1cccc(P(=O)(O)O)c1 [Compound 432] | ≤ 1000 nM |  |
| CCOC(=O)c1cc(-c2ccccc2)sc1NC(=O)CNC(=O)CCc1cccc(P(=O)(OCC)OCC)c1 [Compound 436] | ≤ 1000 nM |  |
| CCOC(=O)c1cc(-c2ccc(C(C)C)cc2)sc1NC(=O)COC(=O)c1cccc(S(N)(=O)=O)c1 [Compound 81] |  | > 100 µM |
| CCOC(=O)c1cc(-c2ccccc2)sc1NC(=O)/C=C/c1cccc(NS(C)(=O)=O)c1 [Compound 149] |  | > 100 µM |
| CCOC(=O)c1cc(-c2ccccc2)sc1NC(=O)C1CCN(C(=O)c2cccc(S(N)(=O)=O)c2)C1 (centres unmarked) [Compound 425] |  | > 100 µM |
| CCOC(=O)c1cc(-c2ccccc2)sc1NC(=O)CNC(=O)c1cccc(S(=O)(=O)N2CCOCC2)c1 [Compound 28] |  | > 100 µM |
| CCOC(=O)c1cc(-c2ccccc2)sc1NC(=O)CN(C)C [Compound 17] |  | > 100 µM |
| CCOC(=O)c1cc(-c2ccc(C(=O)O)cc2)sc1NC(=O)COC(=O)c1cccc(NS(C)(=O)=O)c1 [Compound 226] |  | > 100 µM |

| SMILES | Kd (Zα domain of ADAR1 p150) | EC50 (ADAR1) |
| --- | --- | --- |
| Cc1cccc(Cl)c1NC(=O)c1csc(NC(=O)c2cccc(S(N)(=O)=O)c2)n1 [Compound 35] |  | > 100 µM |
| CCOC(=O)c1nc(-c2ccccc2)ccc1NC(=O)COC(=O)c1cccc(NS(C)(=O)=O)c1 [Compound 245] |  | > 100 µM |
| CCOC(=O)c1cc(-c2ccc(OC)cc2)sc1NC(=O)COC(=O)c1cccc(NS(C)(=O)=O)c1 [Compound 205] |  | > 100 µM |
| CCOC(=O)c1cc(-c2ccccc2)sc1NC(=O)CNC(=O)c1cccc(S(=O)(=O)N2CCCC2)c1 [Compound 29] |  | > 100 µM |
| CCOC(=O)c1cc(NC(=O)COC(=O)c2cccc(NS(C)(=O)=O)c2)sc1-c1ccccc1 [Compound 247] |  | > 100 µM |
| CCOC(=O)c1cc(-c2ccccc2)sc1NC(=O)CCC(=O)c1cccc(NS(C)(=O)=O)c1 [Compound 303] |  | 50 to 100 µM |
| CCOC(=O)c1cc(-c2ccccc2OC(F)(F)F)sc1NC(=O)COC(=O)c1cccc(NS(C)(=O)=O)c1 [Compound 201] |  | > 100 µM |
| CCOC(=O)c1cc(-c2ccccc2)sc1NC(=O)Cn1cc(CS(=O)(=O)c2cccc(NS(C)(=O)=O)c2)nn1 [Compound 362] |  | > 100 µM |
| CCOC(=O)c1cc(-c2ccccc2)sc1NC(=O)CN1C(=O)c2ccc(NS(C)(=O)=O)cc2C1=O [Compound 234] |  | > 100 µM |
| CCOC(=O)c1cc(-c2ccccc2)sc1NC(=O)c1nc(-c2cccc(NS(C)(=O)=O)c2)no1 [Compound 255] |  | > 100 µM |
| CCOC(=O)c1cc(-c2ccccc2)sc1NC(=O)COC(=O)c1cccc(S(C)(=O)=O)c1 [Compound 65] |  | > 100 µM |
| CS(=O)(=O)Nc1cccc(NC(=O)c2cc(-c3ccccc3)sc2N)c1 [Compound 269] |  | > 100 µM |
| CCOC(=O)c1cc(-c2ccccc2)sc1NC(=O)COC(=O)c1cccc(NS(=O)(=O)c2c(C)noc2C)c1 [Compound 322] |  | > 100 µM |
| CCOC(=O)c1cc(-c2ccccc2)sc1NC(=O)c1nnc(-c2cccc(NS(C)(=O)=O)c2)s1 [Compound 222] |  | > 100 µM |
| CCOC(=O)c1cc(-c2ccccc2)sc1NC(=O)CCc1cccc(NS(C)(=O)=O)c1 [Compound 165] |  | > 100 µM |
| CC(C)(C)OC(=O)COC(=O)c1cc(-c2ccccc2)sc1NC(=O)COC(=O)c1cccc(NS(C)(=O)=O)c1 [Compound 203] |  | > 100 µM |
| CCOC(=O)c1cc(-c2ccccc2)sc1NC(=O)C(C)OC(=O)c1cccc(NS(C)(=O)=O)c1 (centres unmarked) [Compound 195] |  | > 100 µM |
| CCOC(=O)c1cc(-c2ccc(N3CCOCC3)cc2)sc1NC(=O)COC(=O)c1cccc(NS(C)(=O)=O)c1 [Compound 135] |  | > 100 µM |
| Cc1nc(-c2ccccc2)sc1C(=O)NCC(=O)Nc1cccc(S(N)(=O)=O)c1 [Compound 48] |  | > 100 µM |
| C=CC(=O)Nc1cccc(C(=O)OCC(=O)Nc2sc(-c3ccccc3)cc2C(=O)OCC)c1 [Compound 284] |  | > 100 µM |
| CCOC(=O)c1cc(-c2ccccc2)sc1NC(=O)Cn1cc(CN(c2cccc(N)c2)S(C)(=O)=O)nn1 [Compound 353] |  | > 100 µM |
| CCOC(=O)c1cc(-c2ccccc2)sc1NC(=O)[C@H]1CCN(C(=O)c2cccc(NS(C)(=O)=O)c2)C1 [Compound 157] |  | > 100 µM |
| CCOC(=O)c1cc(-c2ccc(S(C)(=O)=O)cc2)sc1NC(=O)COC(=O)c1cccc(NS(C)(=O)=O)c1 [Compound 103] |  | > 100 µM |
| CCOC(=O)c1cc(-c2ccc(F)cc2)sc1NC(=O)COC(=O)c1cccc(S(N)(=O)=O)c1 [Compound 75] |  | ≤ 25 µM |
| CCOC(=O)c1cc(-c2ccccc2)sc1NC(=O)COC(=O)c1cccc(NS(=O)(=O)C(C)C)c1 [Compound 131] |  | > 100 µM |
